Measured values from patent publication US8609847B2, “Dihydroquinolinone derivatives” (Taisho Pharmaceutical Co., Ltd, priority 2009, dated 2013).

Biological target: T1, human H3 receptor (Homo sapiens, UniProt Q9Y5N1)
T1 construct: purchased Perkin Elmer ES-392-M400UA; host or cells: CHO-K1 cells (recombinant expression), membrane preparation
Experiment: H3 Receptor Binding Test
Details: 50% inhibition of R(−)-α-methyl[3H]histamine (1 nM) binding; membrane preparation of human H3 receptor-expressing CHO-K1 cells
Procedure: A membrane preparation of human H3 receptor-expressing CHO-K1 cells (Perkin Elmer, ES-392-M400UA, 15 μg protein/200 μl), R(−)-α-methyl[^3H]histamine (Amersham, TRK-1017, specific activity: 1.74 TBq/mmol, 1 nM) and a test drug were reacted at room temperature for 1 hour. After completion of the reaction, the reaction mixture was subjected to suction filtration through a 0.3% polyethyleneimine-treated glass filter (GF/C). The glass filter was washed five times with 50 mM Tris-HCl washing solution (pH 7.4) containing 5 mM EDTA. After washing, the glass filter was dried and a scintillator was added thereto, followed by measurement of radioactivity on the filter using a liquid scintillation counter.
Binding of R(−)-α-methyl[^3H]histamine in the presence of 10 μM R(−)-α-methylhistamine was defined as non-specific binding, and the difference between total binding and non-specific binding of R(−)-α-methyl[^3H]histamine was defined as specific binding of R(−)-α-methyl[^3H]histamine. A fixed concentration (1 nM) of R(−)-α-methyl[^3H]histamine was reacted under the above conditions with each test drug at various concentrations to obtain an inhibition curve. The inhibition curve was used to determine the concentration (IC50) of each test drug required for 50% inhibition of R(−)-α-methyl[^3H]histamine binding.

T1 sequence (Q9Y5N1 whole entry): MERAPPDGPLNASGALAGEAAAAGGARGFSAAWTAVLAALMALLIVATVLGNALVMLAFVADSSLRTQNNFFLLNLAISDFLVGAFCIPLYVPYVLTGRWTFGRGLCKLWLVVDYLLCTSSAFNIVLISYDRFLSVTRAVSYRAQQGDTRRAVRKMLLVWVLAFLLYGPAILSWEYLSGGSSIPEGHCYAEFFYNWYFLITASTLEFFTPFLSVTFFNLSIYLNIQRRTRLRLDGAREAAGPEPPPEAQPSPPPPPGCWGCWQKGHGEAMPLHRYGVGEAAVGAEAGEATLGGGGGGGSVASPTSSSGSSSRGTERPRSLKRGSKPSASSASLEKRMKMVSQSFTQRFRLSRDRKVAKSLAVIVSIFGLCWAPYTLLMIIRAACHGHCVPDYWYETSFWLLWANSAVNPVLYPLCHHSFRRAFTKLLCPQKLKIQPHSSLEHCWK

| SMILES | IC50 [nM] |
| --- | --- |
| C[C@@H]1CCCN1CCCOc1ccc2c(c1)CCC(=O)N2c1cccc(F)c1 [Compound No. 24, 1-(3-fluorophenyl)-6-{3-[(2R)-2-methylpyrrolidin-1-yl]propoxy}-3,4-dihydroquinolin-2(1H)-one] | 0.92 |
| COc1ccc(N2C(=O)CCc3cc(OCCCN4CCC[C@H]4C)ccc32)c(OC)c1 [Compound No. 25, 1-(2,4-dimethoxyphenyl)-6-{3-[(2R)-2-methylpyrrolidin-1-yl]propoxy}-3,4-dihydroquinolin-2(1H)-one] | 2 |
| Cc1ccc(N2C(=O)CCc3cc(OCCCN4CCC[C@H]4C)ccc32)cc1 [Compound No. 3, 1-(4-methylphenyl)-6-{3-[(2R)-2-methylpyrrolidin-1-yl]propoxy}-3,4-dihydroquinolin-2(1H)-one] | 1 |
| O=C1CCc2cc(OC3CCN(C4CC4)CC3)ccc2N1c1ccc(F)cc1 [Compound No. 77, 6-[(1-cyclopropylpiperidin-4-yl)oxy]-1-(4-fluorophenyl)-3,4-dihydroquinolin-2(1H)-one] | 2.1 |
| C[C@@H]1CCCN1CCCOc1ccc2c(c1)CCC(=O)N2c1ccc2c(ccn2C(=O)OC(C)(C)C)c1 [Compound No. 41, tert-butyl 5-[6-{3-[(2R)-2-methylpyrrolidin-1-yl]propoxy}-2-oxo-3,4-dihydroquinolin-1(2H)-yl]-1H-indole-1-carboxylate] | 53 |
| COc1ccc(N2C(=O)CCc3cc(OCCCN4CCC[C@H]4C)ccc32)cc1C#N [Compound No. 33, 2-methoxy-5-[6-{3-[(2R)-2-methylpyrrolidin-1-yl]propoxy}-2-oxo-3,4-dihydroquinolin-1(2H)-yl]benzonitrile] | 4 |
| Cc1ccc(N2C(=O)CCc3cc(OCCCN4CCC[C@H]4C)ccc32)cc1C#N [Compound No. 32, 2-methyl-5-[6-{3-[(2R)-2-methylpyrrolidin-1-yl]propoxy}-2-oxo-3,4-dihydroquinolin-1(2H)-yl]benzonitrile] | 2.7 |
| C[C@@H]1CCCN1CCCOc1ccc2c(c1)CCC(=O)N2c1ccc(Cl)cc1 [Compound No. 7, 1-(4-chlorophenyl)-6-{3-[(2R)-2-methylpyrrolidin-1-yl]propoxy}-3,4-dihydroquinolin-2(1H)-one] | 1.6 |
| C[C@@H]1CCCN1CCCOc1ccc2c(c1)CCC(=O)N2c1ccc(F)cc1F [Compound No. 29, 1-(2,4-difluorophenyl)-6-{3-[(2R)-2-methylpyrrolidin-1-yl]propoxy}-3,4-dihydroquinolin-2(1H)-one] | 1 |
| COc1cccc(N2C(=O)CCc3cc(OCCCN4CCC[C@H]4C)ccc32)c1 [Compound No. 22, 1-(3-methoxyphenyl)-6-{3-[(2R)-2-methylpyrrolidin-1-yl]propoxy}-3,4-dihydroquinolin-2(1H)-one] | 1.6 |
| C[C@@H]1CCCN1CCCOc1ccc2c(c1)CCC(=O)N2c1ccc(-c2cnco2)cc1 [Compound No. 19, 6-{3-[(2R)-2-methylpyrrolidin-1-yl]propoxy}-1-[4-(1,3-oxazol-5-yl)phenyl]-3,4-dihydroquinolin-2(1H)-one] | 4 |
| COc1ccc2ncc(N3C(=O)CCc4cc(OCCCN5CCC[C@H]5C)ccc43)cc2c1 [Compound No. 55, 6′-methoxy-6-{3-[(2R)-2-methylpyrrolidin-1-yl]propoxy}-3,4-dihydro-2H-1,3′-biquinolin-2-one] | 5.4 |
| C[C@@H]1CCCN1CCCOc1ccc2c(c1)CCC(=O)N2c1cncc2cccnc12 [Compound No. 40, 6-{3-[(2R)-2-methylpyrrolidin-1-yl]propoxy}-1-(1,6-naphthylizin-8-yl)-3,4-dihydroquinolin-2(1H)-one] | 20 |
| C[C@@H]1CCCN1CCCOc1ccc2c(c1)CCC(=O)N2c1ccc(F)c(F)c1 [Compound No. 28, 1-(3,4-difluorophenyl)-6-{3-[(2R)-2-methylpyrrolidin-1-yl]propoxy}-3,4-dihydroquinolin-2(1H)-one] | 1 |
| CC(C)(C)N1CCC(Oc2ccc3c(c2)CCC(=O)N3c2ccc(F)cc2)CC1 [Compound No. 66, 6-[(1-tert-butylpiperidin-4-yl)oxy]-1-(4-fluorophenyl)-3,4-dihydroquinolin-2(1H)-one] | 3.7 |
| O=C1CCc2cc(OC3CCN(C4CCC4)CC3)ccc2N1c1ccc(Cl)cc1 [Compound No. 70, 1-(4-chlorophenyl)-6-[(1-cyclobutylpiperidin-4-yl)oxy]-3,4-dihydroquinolin-2(1H)-one] | 0.75 |
| CC(C)(C)N1CCC(Oc2ccc3c(c2)CCC(=O)N3c2ccc(C#N)cc2)CC1 [Compound No. 62, 4-{6-[(1-tert-butylpiperidin-4-yl)oxy]-2-oxo-3,4-dihydroquinolin-1(2H)-yl}benzonitrile] | 4.9 |
| CC(C)(C)N1CCC(Oc2ccc3c(c2)CCC(=O)N3c2cccc(C#N)c2)CC1 [Compound No. 63, 3-{6-[(1-tert-butylpiperidin-4-yl)oxy]-2-oxo-3,4-dihydroquinolin-1(2H)-yl}benzonitrile] | 6.1 |
| COc1cc(F)cc(N2C(=O)CCc3cc(OCCCN4CCC[C@H]4C)ccc32)c1 [Compound No. 26, 1-(3-fluoro-5-methoxyphenyl)-6-{3-[(2R)-2-methylpyrrolidin-1-yl]propoxy}-3,4-dihydroquinolin-2(1H)-one] | 2.4 |
| COc1ccc(N2C(=O)CCc3cc(OCCCN4CCC[C@H]4C)ccc32)cc1 [Compound No. 4, 1-(4-methoxyphenyl)-6-{3-[(2R)-2-methylpyrrolidin-1-yl]propoxy}-3,4-dihydroquinolin-2(1H)-one] | 2.7 |
| C[C@@H]1CCCN1CCCOc1ccc2c(c1)CCC(=O)N2c1ccn(C)c(=O)c1 [Compound No. 54, 1-(1-methyl-2-oxo-1,2-dihydropyridin-4-yl)-6-{3-[(2R)-2-methylpyrrolidin-1-yl]propoxy}-3,4-dihydroquinolin-2(1H)-one] | 4.8 |
| COc1ccccc1N1C(=O)CCc2cc(OCCCN3CCC[C@H]3C)ccc21 [Compound No. 23, 1-(2-methoxyphenyl)-6-{3-[(2R)-2-methylpyrrolidin-1-yl]propoxy}-3,4-dihydroquinolin-2(1H)-one] | 1.2 |
| CC(C)(C)N1CCC(Oc2ccc3c(c2)CCC(=O)N3c2cncc(F)c2)CC1 [Compound No. 64, 6-[(1-tert-butylpiperidin-4-yl)oxy]-1-(5-fluoropyridin-3-yl)-3,4-dihydroquinolin-2(1H)-one] | 5.3 |
| C[C@@H]1CCCN1CCCOc1ccc2c(c1)CCC(=O)N2c1ccc(C(=O)C2CC2)cc1 [Compound No. 16, 1-[4-(cyclopropylcarbonyl)phenyl]-6-{3-[(2R)-2-methylpyrrolidin-1-yl]propoxy}-3,4-dihydroquinolin-2(1H)-one] | 11 |
| Cc1ccc(Oc2ccc(N3C(=O)CCc4cc(OCCCN5CCC[C@H]5C)ccc43)cc2)nn1 [Compound No. 20, 1-{4-[(6-methylpyridazin-3-yl)oxy]phenyl}-6-{3-[(2R)-2-methylpyrrolidin-1-yl]propoxy}-3,4-dihydroquinolin-2(1H)-one] | 1 |
| C[C@@H]1CCCN1CCCOc1ccc2c(c1)CCC(=O)N2c1ccc2[nH]ccc2c1 [Compound No. 56, 1-(1H-indol-5-yl)-6-{3-[(2R)-2-methylpyrrolidin-1-yl]propoxy}-3,4-dihydroquinolin-2(1H)-one] | 1.3 |
